Values after ≈ are worked out from the molar mass of the structure shown. Like-named read-outs stand apart in the source and are kept apart here.
How the values were obtained:
Assay type in all cases: cell-based
Streptococcus uberis = assay: MIC, agar dilution, Streptococcus uberis; details: Streptococcus uberis, read-out: MIC
Method: (§1) Stock solution of each test antibiotic compound were prepared to have a concentration of 2 mg. of the test compound per milliliter in sterile water of 0.1M ammonium acetate solution. The amount of each compound used was adjusted for base compound activity as calculated from the purity data for the selected batch of compound.
(§2) The dilution procedure described by Washington and Sutter [Manual of Clinical Microbiology, 3rd, Edit. (Lennett, E. H. et al, Eds.), pp. 453-458 (1980), American Society for Microbiology, Washington, D.C.] was modified so that serial concentrations of 128 to 0.0625 microgram/ml. in sterile water was obtained. Then 1.5 ml. aliquots of these test antibiotic dilution mixtures are added to 13.5 molten (50° C.) Mueller-Hinton agar. Each resulting mixture is poured into 15×100 mm, sterile Petri plates and allowed to dry at room temperature overnight.
(§3) Test bacterial cultures are maintained at -70° C. on glass beads. [See R. J. Yancey, Jr. et al, Amer. Jr. of Vet. Research, 48, No. 7, pp. 1050-1053, (1987)]. At least one bacteria-laden bead per culture is dropped into one ml. of brain heart infusion (BHI) broth for overnight culture at 37° C. in 5% V/V carbon dioxide in air atmosphere.
(§4) On the data of assay, 2 to 8 drops of the bacterial broth cultures are transferred to fresh BHI broth (1 ml.) and the mixture is incubated for 4 to 6 hours at 37° C. in a 5% V/V carbon dioxide in air atmosphere. The resulting cultures are then diluted to match a 0.5 MacFarland standard and further diluted 1:20 V/V with sterile saline solution.
(§5) A 0.001 ml. drop of the resulting mixture, containing approximately 10^3 to 10^4 colony forming units (CFU) of each test bacteria organism, is dispensed onto the surface of the test antibiotic compound test plates with a Steer's type replicator. The resulting innoculated plates are incubated 16 to 18 hours at 37° C. with a carbon dioxide atmosphere.
as §1, with “Stock solutions” for “Stock solution”
as §2, with “mm.” for “mm,”
as §2, with “for Microbiology.” for “for Microbiology,”, “15×100 mm.” for “15×100 mm,”
as §3, with “culture” for “cultures”
(§6) On the day of assay, 2 to 8 drops of the bacterial broth cultures are transferred to fresh BHI broth (1 ml.) and the mixture is incubated for 4 to 6 hours at 37° C. in a 5% V/V carbon dioxide in air atmosphere. […]

Corynebacterium pyogenes = assay: MIC, agar dilution, Corynebacterium pyogenes; details: strain 213-2; read-out: MIC
Method: as §1, §2, §3, §4, §5
as §1, with “Stock solutions” for “Stock solution”
as §2, with “mm.” for “mm,”
as §2, with “for Microbiology.” for “for Microbiology,”, “15×100 mm.” for “15×100 mm,”
as §3, with “culture” for “cultures”
as §6

Micrococcus luteus = assay: MIC, agar dilution, Micrococcus luteus; details: Micrococcus luteus; strain UC130; read-out: MIC
Method: as §1, §2, §3, §4, §5
as §1, with “Stock solutions” for “Stock solution”
as §2, with “mm.” for “mm,”
as §2, with “for Microbiology.” for “for Microbiology,”, “15×100 mm.” for “15×100 mm,”
as §3, with “culture” for “cultures”
as §6

Streptococcus suis = assay: MIC, agar dilution, Streptococcus suis; details: Streptococcus suis; strain 650-2; read-out: MIC
Method: as §1, §2, §3, §4, §5
as §1, with “Stock solutions” for “Stock solution”
as §2, with “mm.” for “mm,”
as §2, with “for Microbiology.” for “for Microbiology,”, “15×100 mm.” for “15×100 mm,”
as §3, with “culture” for “cultures”
as §6

[1] = system: Bordetella bronchiseptica; assay: MIC, agar dilution, Bordetella bronchiseptica; details: Bordetella bronchiseptica; strain UC6313; read-out: MIC
Method: as §1, §2, §3, §4, §5
as §1, with “Stock solutions” for “Stock solution”
as §2, with “mm.” for “mm,”
as §2, with “for Microbiology.” for “for Microbiology,”, “15×100 mm.” for “15×100 mm,”
as §3, with “culture” for “cultures”
as §6

Enterococcus faecium = assay: MIC, agar dilution, Enterococcus faecium; details: Enterococcus faecium; strain UC241; read-out: MIC
Method: as §1, with “Stock solutions” for “Stock solution”
as §2, §3, §4, §5, §1
as §2, with “mm.” for “mm,”
as §2, with “for Microbiology.” for “for Microbiology,”, “15×100 mm.” for “15×100 mm,”
as §3, with “culture” for “cultures”
as §6

Streptococcus bovis = assay: MIC, agar dilution, Streptococcus bovis; details: Streptococcus equinus; strain UC6281; read-out: MIC
Method: as §1, §2, §3, §4, §5
as §1, with “Stock solutions” for “Stock solution”
as §2, with “mm.” for “mm,”
as §2, with “for Microbiology.” for “for Microbiology,”, “15×100 mm.” for “15×100 mm,”
as §3, with “culture” for “cultures”
as §6

Salmonella typhimurium = assay: MIC, agar dilution, Salmonella typhimurium; details: Salmonella enterica, read-out: MIC
Method: as §1, §2, §3, §4, §5
as §1, with “Stock solutions” for “Stock solution”
as §2, with “mm.” for “mm,”
as §2, with “for Microbiology.” for “for Microbiology,”, “15×100 mm.” for “15×100 mm,”
as §3, with “culture” for “cultures”
as §6

Pasteurella hemolytica = assay: MIC (minimum inhibitory concentration), agar dilution, Pasteurella hemolytica; details: Pasteurella, read-out: MIC
Method: as §1, §2, §3, §4, §5
as §1, with “Stock solutions” for “Stock solution”
as §2, with “mm.” for “mm,”
as §2, with “for Microbiology.” for “for Microbiology,”, “15×100 mm.” for “15×100 mm,”
as §3, with “culture” for “cultures”
as §6

Streptococcus agalactiae = assay: MIC, agar dilution, Streptococcus agalactiae; details: Streptococcus agalactiae, read-out: MIC
Method: as §1, §2, §3, §4, §5
as §1, with “Stock solutions” for “Stock solution”
as §2, with “mm.” for “mm,”
as §2, with “for Microbiology.” for “for Microbiology,”, “15×100 mm.” for “15×100 mm,”
as §3, with “culture” for “cultures”
as §6

Escherichia coli = assay: MIC, agar dilution, Escherichia coli; details: Escherichia coli, read-out: MIC
Method: as §1, §2, §3, §4, §5
as §1, with “Stock solutions” for “Stock solution”
as §2, with “mm.” for “mm,”
as §2, with “for Microbiology.” for “for Microbiology,”, “15×100 mm.” for “15×100 mm,”
as §3, with “culture” for “cultures”
as §6

[2] = system: Streptococcus dysgalactiae; assay: MIC, agar dilution, Streptococcus dysgalactiae; details: Streptococcus dysgalactiae; strain UC251; read-out: MIC
Method: as §1, §2, §3, §4, §5
as §1, with “Stock solutions” for “Stock solution”
as §2, with “mm.” for “mm,”
as §2, with “for Microbiology.” for “for Microbiology,”, “15×100 mm.” for “15×100 mm,”
as §3, with “culture” for “cultures”
as §6

Enterococcus faecalis = assay: MIC, agar dilution, Enterococcus faecalis; details: Enterococcus faecalis; strain UC694; read-out: MIC
Method: as §1, with “Stock solutions” for “Stock solution”
as §2, §3, §4, §5, §1
as §2, with “mm.” for “mm,”
as §2, with “for Microbiology.” for “for Microbiology,”, “15×100 mm.” for “15×100 mm,”
as §3, with “culture” for “cultures”
as §6

Salmonella choleraesuis = assay: MIC, agar dilution, Salmonella choleraesuis; details: Salmonella enterica, read-out: MIC
Method: as §1, §2, §3, §4, §5
as §1, with “Stock solutions” for “Stock solution”
as §2, with “mm.” for “mm,”
as §2, with “for Microbiology.” for “for Microbiology,”, “15×100 mm.” for “15×100 mm,”
as §3, with “culture” for “cultures”
as §6

Pseudomonas aeruginosa = assay: MIC, agar dilution, Pseudomonas aeruginosa; details: Pseudomonas aeruginosa, ATCC27853; strain ATCC 27853; read-out: MIC
Method: as §1, §2, §3, §4, §5
as §1, with “Stock solutions” for “Stock solution”
as §2, with “mm.” for “mm,”
as §2, with “for Microbiology.” for “for Microbiology,”, “15×100 mm.” for “15×100 mm,”
as §3, with “culture” for “cultures”
as §6

Pasteurella multocida = assay: MIC, agar dilution, Pasteurella multocida; details: Pasteurella multocida; strain UC9581; read-out: MIC
Method: as §1, §2, §3, §4, §5
as §1, with “Stock solutions” for “Stock solution”
as §2, with “mm.” for “mm,”
as §2, with “for Microbiology.” for “for Microbiology,”, “15×100 mm.” for “15×100 mm,”
as §3, with “culture” for “cultures”
as §6

Staphylococcus aureus = assay: MIC, agar dilution, Staphylococcus aureus; details: Staphylococcus aureus, read-out: MIC
Method: as §1, §2, §3, §4, §5
as §1, with “Stock solutions” for “Stock solution”
as §2, with “mm.” for “mm,”
as §2, with “for Microbiology.” for “for Microbiology,”, “15×100 mm.” for “15×100 mm,”
as §3, with “culture” for “cultures”
as §6

[3] = TYPHIMURIUM / UC6162, strain UC6162
[4] = TYPHIMURIUM / UC6164, strain UC6164
[5] = CHOLERAESUIS / UC6073, strain UC6073
[6] = CHOLERAESUIS / UC6077, strain UC6077

MIC (Streptococcus uberis; strain UC3946) [µg/mL]	MIC (Streptococcus uberis; strain UC6159) [µg/mL]	MIC (Corynebacterium pyogenes) [µg/mL]	MIC (Micrococcus luteus) [µg/mL]	MIC (Streptococcus suis) [µg/mL]	MIC [1] [µg/mL]	MIC (Enterococcus faecium) [µg/mL]	MIC (Streptococcus bovis) [µg/mL]	MIC (Salmonella typhimurium; [3]) [µg/mL]	MIC (Salmonella typhimurium; [4]) [µg/mL]	MIC (Streptococcus agalactiae; strain UC3947) [µg/mL]	MIC (Streptococcus agalactiae; strain UC6892) [µg/mL]	MIC (Escherichia coli; strain UC3784) [µg/mL]	MIC (Escherichia coli; strain UC6720) [µg/mL]	MIC (Escherichia coli; strain UC9670) [µg/mL]	MIC [2] [µg/mL]	MIC (Enterococcus faecalis) [µg/mL]	SMILES	MIC (Pasteurella hemolytica; strain UC6531) [µg/mL]	MIC (Pasteurella hemolytica; strain UC6532) [µg/mL]	MIC (Pasteurella hemolytica; strain UC9582) [µg/mL]	further results
0.25 (≈ 0.496 µM)	16 (≈ 31.8 µM)	> 32	0.5 (≈ 0.993 µM)	≤ 0.06	32 (≈ 63.5 µM)	> 32	> 32	16 (≈ 31.8 µM)	32 (≈ 63.5 µM)	2 (≈ 3.97 µM)	> 32	16 (≈ 31.8 µM)	32 (≈ 63.5 µM)	16 (≈ 31.8 µM)	≤ 0.06	> 32	CCCSSCC1=C(C(=O)O)N2C(=O)[C@@H](NC(=O)/C(=N\OC)c3csc(N)n3)[C@H]2SC1 [Example 11]	0.5 (≈ 0.993 µM)	0.5 (≈ 0.993 µM)	0.5 (≈ 0.993 µM)	MIC (Salmonella choleraesuis; [5]): 32 µg/mL (≈ 63.5 µM); MIC (Salmonella choleraesuis; [6]): > 32 µg/mL; MIC (Pseudomonas aeruginosa): > 32 µg/mL; MIC (Pasteurella multocida): 32 µg/mL (≈ 63.5 µM); MIC (Staphylococcus aureus; strain UC6093): 8 µg/mL (≈ 15.9 µM); MIC (Staphylococcus aureus; strain UC6097): 8 µg/mL (≈ 15.9 µM); MIC (Staphylococcus aureus; strain UC9203): 8 µg/mL (≈ 15.9 µM)
0.13 (≈ 0.251 µM)	8 (≈ 15.5 µM)	32 (≈ 61.8 µM)	≤ 0.06	≤ 0.06	> 32	> 32	> 32	16 (≈ 30.9 µM)	32 (≈ 61.8 µM)	2 (≈ 3.86 µM)	> 32	8 (≈ 15.5 µM)	16 (≈ 30.9 µM)	8 (≈ 15.5 µM)	≤ 0.06	> 32	CCCCSSCC1=C(C(=O)O)N2C(=O)[C@@H](NC(=O)/C(=N\OC)c3csc(N)n3)[C@H]2SC1 [Example 12]	0.5 (≈ 0.966 µM)	0.5 (≈ 0.966 µM)	0.5 (≈ 0.966 µM)	MIC (Salmonella choleraesuis; [5]): 32 µg/mL (≈ 61.8 µM); MIC (Salmonella choleraesuis; [6]): 32 µg/mL (≈ 61.8 µM); MIC (Pseudomonas aeruginosa): > 32 µg/mL; MIC (Pasteurella multocida): 8 µg/mL (≈ 15.5 µM); MIC (Staphylococcus aureus; strain UC6093): 4 µg/mL (≈ 7.73 µM); MIC (Staphylococcus aureus; strain UC6097): 4 µg/mL (≈ 7.73 µM); MIC (Staphylococcus aureus; strain UC9203): 4 µg/mL (≈ 7.73 µM)

Reference: patent US5134137A, “Cephalosporin antibiotics” (The Upjohn Company, priority 1990, dated 1992)
